Test results reported in ChEMBL document CHEMBL1201862, “PubChem BioAssay data set” (2004).
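Where inhibition never reached the appropriate level, the endpoint shown equals the highest concentration tested. Otherwise, values were interpolated linearly from a five-concentration, 48-hour dose response in 96-well plates. At the GI50, growth is halved.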 Active and inactive are the calls of the source. Rule as the data show it: active = GI50 up to about 1.1 µM and inactive = higher.

Columns and labels:
Assay in all cases: NCI-60 cell line screen, 48 h
MOLT-4 = system: MOLT-4
RPMI-8226 = system: RPMI-8226
SK-MEL-5 = system: SK-MEL-5
HT-29 = system: HT-29
SF-268 = system: SF-268
SW-620 = system: SW-620
A549 = system: A549
SR = system: SR
SK-MEL-28 = system: SK-MEL-28
SF-539 = system: SF-539
UACC-257 = system: UACC-257
K562 = system: K562
A498 = system: A498
RXF 393 = system: RXF 393
LOX IMVI = system: LOX IMVI
HOP-62 = system: HOP-62

Measured: GI50

Nc1nc(=O)[nH]c2c1cnn2C1CCCCO1 (centres undefined)
inactive: MOLT-4 > 100 µM | RPMI-8226 > 100 µM | SK-MEL-5 70.3 µM | HT-29 > 100 µM | SF-268 > 100 µM | SW-620 > 100 µM | A549 > 100 µM | SR 56 µM | SK-MEL-28 > 100 µM | SF-539 > 100 µM | UACC-257 > 100 µM | K562 > 100 µM | A498 > 100 µM | RXF 393 56 µM | LOX IMVI > 100 µM

CCC(C)CN1C(=O)NC(Cc2ccccc2)C1=O (centres undefined)
inactive: HOP-62 > 100 µM | HT-29 > 100 µM | SF-268 > 100 µM | SW-620 > 100 µM | A549 > 100 µM | SR > 100 µM | SK-MEL-28 > 100 µM | SF-539 > 100 µM | UACC-257 22.1 µM | RXF 393 > 100 µM | LOX IMVI > 100 µM

O=C(Nc1ccc(Cl)cc1Cl)/C(Cl)=C1/Sc2ccccc2NC1=O
inactive: MOLT-4 25.6 µM | RPMI-8226 24 µM | SK-MEL-5 19.3 µM | HOP-62 39.7 µM | SF-268 26.7 µM | SW-620 33.7 µM | A549 39.3 µM | SK-MEL-28 23.6 µM | SF-539 30.2 µM | K562 29.6 µM | A498 66.4 µM | RXF 393 27.9 µM | LOX IMVI 40.6 µM

C=C=CC(NC(=O)c1ccccc1)(C(=O)O)C(F)(F)F (centres undefined)
inactive: MOLT-4 > 100 µM | RPMI-8226 > 100 µM | SK-MEL-5 > 100 µM | HT-29 > 100 µM | SF-268 > 100 µM | SW-620 > 100 µM | A549 > 100 µM | SR > 100 µM | SK-MEL-28 > 100 µM | SF-539 > 100 µM | UACC-257 > 100 µM | K562 > 100 µM | A498 > 100 µM | RXF 393 > 100 µM | LOX IMVI > 100 µM

COC(=O)[C@H]1N[C@@H](C(=O)OC)C23CCC[C@H]2CC[C@]1(C(OC)OC)C3
inactive: MOLT-4 > 100 µM | RPMI-8226 > 100 µM | SK-MEL-5 > 100 µM | HOP-62 > 100 µM | HT-29 > 100 µM | SF-268 > 100 µM | SW-620 56.2 µM | A549 > 100 µM | SK-MEL-28 > 100 µM | SF-539 > 100 µM | UACC-257 > 100 µM | K562 73.6 µM | A498 > 100 µM | LOX IMVI > 100 µM

O=c1c2cc3c(=O)n(CCc4ccccc4CO)c(=O)c3cc2c(=O)n1CCc1ccccc1CO
inactive: MOLT-4 > 100 µM | SK-MEL-5 > 100 µM | HT-29 > 100 µM | SF-268 > 100 µM | SW-620 > 100 µM | A549 > 100 µM | SK-MEL-28 > 100 µM | SF-539 > 100 µM | UACC-257 > 100 µM | K562 > 100 µM | A498 > 100 µM | RXF 393 > 100 µM | LOX IMVI > 100 µM

C#CCC1(C(=O)OCC)C(=O)c2ccccc2N(C)C1=O (centres undefined)
inactive: MOLT-4 45.2 µM | RPMI-8226 68.4 µM | SK-MEL-5 70.3 µM | HT-29 > 100 µM | SF-268 58.7 µM | SW-620 > 100 µM | SK-MEL-28 > 100 µM | SF-539 > 100 µM | K562 91.8 µM | A498 67.5 µM | LOX IMVI > 100 µM

C/C(CCn1[nH]c(=O)ccc1=O)=N\NC(=O)C(=O)NN
inactive: MOLT-4 > 100 µM | RPMI-8226 > 100 µM | SK-MEL-5 > 100 µM | HOP-62 > 100 µM | HT-29 > 100 µM | SF-268 > 100 µM | SW-620 > 100 µM | A549 > 100 µM | SK-MEL-28 > 100 µM | SF-539 > 100 µM | UACC-257 > 100 µM | K562 > 100 µM | A498 43.8 µM | RXF 393 > 100 µM | LOX IMVI > 100 µM

O=C(O)[C@@H](NS(=O)(=O)c1ccc(F)cc1)c1ccccc1
inactive: MOLT-4 > 100 µM | RPMI-8226 > 100 µM | SK-MEL-5 > 100 µM | HOP-62 > 100 µM | HT-29 > 100 µM | SF-268 > 100 µM | SW-620 > 100 µM | A549 > 100 µM | SK-MEL-28 > 100 µM | SF-539 > 100 µM | UACC-257 > 100 µM | K562 > 100 µM | RXF 393 > 100 µM | LOX IMVI > 100 µM

C=CCc1cc(OC)c2c(c1)C(OC(C)=O)CC(c1ccc(OC)c(OC)c1)O2 (centres undefined)
inactive: MOLT-4 > 100 µM | SK-MEL-5 > 100 µM | HOP-62 45.4 µM | HT-29 > 100 µM | SF-268 > 100 µM | SW-620 > 100 µM | A549 > 100 µM | SR > 100 µM | SK-MEL-28 > 100 µM | SF-539 47.4 µM | UACC-257 > 100 µM | K562 > 100 µM

C=C(N=[N+]=[N-])c1cn(C2CC(O)C(CO)O2)c(=O)[nH]c1=O (centres undefined)
inactive: MOLT-4 > 100 µM | RPMI-8226 > 100 µM | SK-MEL-5 > 100 µM | HOP-62 > 100 µM | HT-29 > 100 µM | SW-620 > 100 µM | A549 > 100 µM | SR > 100 µM | SK-MEL-28 > 100 µM | SF-539 > 100 µM | K562 > 100 µM | RXF 393 > 100 µM | LOX IMVI > 100 µM

Cc1c(/C=N/N(C)C)oc2c1cc(O)c1ncccc12
inactive: MOLT-4 2.59 µM | RPMI-8226 5.05 µM | SK-MEL-5 6.9 µM | HOP-62 7.35 µM | HT-29 41.2 µM | SF-268 4.01 µM | SW-620 4.61 µM | A549 5.01 µM | SR 2.77 µM | SK-MEL-28 22.5 µM | UACC-257 5.36 µM | K562 3.86 µM | A498 25.8 µM | RXF 393 5.97 µM | LOX IMVI 4.5 µM

Nc1nc(SCc2ccccc2Cl)c2[nH]cnc2n1
inactive: MOLT-4 34.6 µM | RPMI-8226 > 100 µM | SK-MEL-5 48.8 µM | HOP-62 25.5 µM | SF-268 58.7 µM | SW-620 > 100 µM | A549 73.1 µM | SR 64.9 µM | SK-MEL-28 68.9 µM | SF-539 74.8 µM | UACC-257 56 µM | K562 50.2 µM | A498 15 µM | RXF 393 23.1 µM | LOX IMVI 44.2 µM

COc1ccc(/C=C/c2cc(OC)c(OCc3ccccc3)c(OC)c2)cc1
inactive: MOLT-4 29 µM | RPMI-8226 57.9 µM | HOP-62 > 100 µM | HT-29 27.9 µM | SF-268 > 100 µM | SW-620 > 100 µM | A549 > 100 µM | SR 26.4 µM | SK-MEL-28 56.6 µM | SF-539 > 100 µM | UACC-257 99.1 µM | K562 > 100 µM | A498 > 100 µM
